Test results from patent publication EP2832348B1, “METHOD FOR DISSOLVING FLAVONOID COMPOUND, CARBON GLYCOSIDE COMPOUND, OR STILBENE COMPOUND AND METHOD FOR PREPARING AN INJECTION OR A POWDER FOR INJECTION” (Kunming Pharmaceutical Corp., priority 2012, dated 2013).

Assay: Dissolving the compound with solubilizer in heated, vacuum-stirred water for injection under nitrogen or argon gas (preparation tank)
Format: physicochemical
Details: kept at 80 °C
Method: In view of this, the present invention provides a method for dissolving a carbon glycoside compound or a stilbene compound, characterized in that the method comprises the following steps: • heating water for injection to 80-98 °C, followed by stirring under vacuum condition at 30-80 °C, and then adding the carbon glycoside compound or the stilbene compound along with a solubilizer under the protection of nitrogen gas or argon gas to obtain a solution of said compounds; • wherein the solubilizer is one or a mixture of two or more of gastrodin, water-soluble cyclodextrin and ethanol, and wherein the water-soluble cyclodextrin is one or a mixture of two or more of methyl-β-cyclodextrin, thioether-β-cyclodextrin and sulfobutyl ether-β-cyclodextrin; and • wherein the mass ratio of the carbon glycoside compound or the stilbene compound to the solubilizer is 1:1-20.
Disclosed is a method for dissolving a flavonoid compound, a carbon glycoside compound or a stilbene compound, including: • mixing the flavonoid compound, the carbon glycoside compound or the stilbene compound with a solubilizer to obtain a reactant; and • heating water for injection to 80-98 °C, followed by stirring under vacuum conditions at 30-80 °C, and then adding the reactant under the protection of nitrogen gas or argon gas to obtain a solution of the reactant.
Considering the sensitivity to heat or light of the flavonoid compound, the carbon glycoside compound or the stilbene compound, a method is provided by heating water for injection to 80-98 °C to remove dissolved oxygen and other gases in water, which reduces the surface tension of water, increases the contact area of water with the flavonoid compound, the carbon glycoside compound or the stilbene compound, thus increasing the dissolution speed. Meanwhile, pre-heating the water for injection can effectively avoid degradation of the flavonoid compound, the carbon glycoside compound or the stilbene compound due to exposure to the dissolved oxygen, to eliminate unstable factors of the flavonoid compound, the carbon glycoside compound or the stilbene compound. The vacuum conditions can achieve further deoxygenation, facilitating the dissolution of the flavonoid compound, the carbon glycoside compound or the stilbene compound in water. Nitrogen gas or argon gas provides an inert atmosphere, which further reduces the surface tension of the materials, increases the contact area of the flavonoid compound, the carbon glycoside compound or the stilbene compound with water, and increases the dissolution speed.

Breviscapine
dissolved in (time) (Example 1: 5 g with Gastrodin 100 g, Sodium carbonate 10 g in 1000 ml, water heated to 95 °C, vacuum stirring 10 minutes, nitrogen gas): about 5 minutes | dissolved in (time) (Example 2: 25 g with Gastrodin 100 g, Hydroxypropyl-β-cyclodextrin 50 g, Sodium carbonate 1 g in 1000 ml, water heated to 95 °C, vacuum stirring 10 minutes, argon gas): about 5 minutes | dissolved in (time) (Example 8 (formula: Wogonin 10 g) with Thioether-β-cyclodextrin 50 g, Sodium bicarbonate 1 g in 1000 ml, water heated to 85 °C, vacuum stirring 30 minutes, argon gas): about 5 minutes

Taxinine
dissolved in (time) (Example 16: 12 g with Sulfobutyl ether-β-cyclodextrin 40 g in 1000 ml, water heated to 95 °C, vacuum stirring 10 minutes, nitrogen gas): about 5 minutes
